pIC50: −log10 of the molar value. Calls of active or inactive are those of the source. The rule behind the calls is not given here.
Key:
[1] = tested on: Microglia; assay: Cell viability of rat cortical microglial cells after 48 hrs by MTT assay; type: functional, cell-based
[2] = tested on: Microglia; assay: Cell viability of LPS-stimulated rat cortical microglial cells after 48 hrs by MTT assay; type: functional, cell-based
[3] = Inhibition of LPS-stimulated NO release in rat cortical microglial cells assessed as nitrite accumulation after 48 hrs; type: functional; details: Microglia
[4] = Inhibition of LPS-stimulated NO release in rat cortical microglial cells assessed as nitrite accumulation at 100 ug/ml after 48 hrs relative to LPS; type: functional; details: Microglia, values are per cent of control
[5] = Inhibition of LPS-stimulated NO release in rat cortical microglial cells assessed as nitrite accumulation at 10 ug/ml after 48 hrs relative to LPS; type: functional; details: Microglia, values are per cent of control
[6] = Inhibition of LPS-stimulated NO release in rat cortical microglial cells assessed as nitrite accumulation at 1 ug/ml after 48 hrs relative to LPS; type: functional; details: Microglia, values are per cent of control
[7] = Inhibition of LPS-stimulated NO release in rat cortical microglial cells assessed as nitrite accumulation at 3 uM after 48 hrs relative to LPS; type: functional; details: Microglia, values are per cent of control
[8] = Inhibition of NO release in LPS-stimulated rat cortical microglial cells assessed as nitrite accumulation at 30 uM after 48 hrs relative to LPS; type: functional; details: Microglia, values are per cent of control

Structure (SMILES) | Activity [1] | Activity [2] | pIC50 [3] | response, % of control at 100 µg/mL [4] | response, % of control at 10 µg/mL [5] | response, % of control at 1 µg/mL [6] | response, % of control at 3 µM [7] | response, % of control at 30 µM [8]
C=C[C@@H]1CN2CC[C@]3(C(=O)Nc4ccccc43)[C@@H]2C[C@@H]1/C(=C\OC)C(=O)O [18,19-DEHYDROCORYNOXINIC ACID B] | inactive | inactive | < 4.00 | 88.9% | 84.2% | 81.9% | – | –
C=C[C@@H]1CN2CC[C@@]3(C(=O)Nc4ccccc43)[C@@H]2C[C@@H]1/C(=C\OC)C(=O)O | inactive | inactive | < 4.00 | 92.7% | 107% | 98.8% | – | –
CC[C@H]1CN2CC[C@@]3(C(=O)Nc4ccccc43)[C@@H]2C[C@@H]1/C(=C\OC)C(=O)OC [ISORHYNCHOPHYLLINE] | inactive | inactive | 4.72 | 42.1% | 76.9% | 95.2% | – | –
C=C[C@H]1C(O[C@@H]2O[C@H](CO)[C@@H](O)[C@H](O)[C@H]2O)OC=C2C(=O)N3CCc4c([nH]c5ccccc45)[C@@H]3C[C@H]21 (stereo partly specified) [VINCOSIDE LACTAM] | inactive | inactive | 4.79 | 38.6% | 65.7% | 71.8% | – | –
C=C[C@H]1CN2CC[C@@]3(C(=O)Nc4ccccc43)[C@@H]2C[C@@H]1/C(=C\OC)C(=O)OC [ISOCORYNOXEINE] | inactive | inactive | 4.86 | 40.5% | 73.2% | 92.2% | – | –
CC[C@H]1CN2CC[C@]3(C(=O)Nc4ccccc43)[C@@H]2C[C@@H]1/C(=C\OC)C(=O)OC [RHYNCHOPHYLLINE] | inactive | inactive | 4.73 | 35.9% | 75.8% | 106% | – | –
Oc1ccc(/C=C/c2cc(O)cc(O)c2)cc1 [RESVERATROL] | – | – | 4.94 | – | 72.4% | – | 92% | 43.4%
C=C[C@H]1CN2CC[C@]3(C(=O)Nc4ccccc43)[C@@H]2C[C@@H]1/C(=C\OC)C(=O)OC [CORYNOXEINE] | inactive | inactive | 4.80 | 37.9% | 74.5% | 86.9% | – | –
